We go through 30 molecules from the NIST ThermoML archive (doi:10.1016/j.jct.2009.08.012).

This series is described as follows: activity coefficient (dimensionless); of the first substance listed, at infinite dilution; xn = mol fraction of the nth substance listed. As to conditions: Liquid, Chromatography, x1 = 0.

Values joined by “and” are separate entries in the source; they are usually repeats but may differ in a detail not shown here. Equal values may be shown once. Numbers after ± are expanded uncertainties.

Consider `C=CCCCCCCCC` [1-decene] + CCCCCCCC[N+](C)(CCCCCCCC)CCCCCCCC.O=S(=O)([N-]S(=O)(=O)C(F)(F)F)C(F)(F)F, for which the activity coefficient reads like this: (303.15 K) 2.26 and 2.22; (313.15 K) 2.13 and 2.11; (323.15 K) 2.07 and 2.05.
For the molecule `C#CCCCCCCCC` [1-decyne] + CCCCCCCC[N+](C)(CCCCCCCC)CCCCCCCC.O=S(=O)([N-]S(=O)(=O)C(F)(F)F)C(F)(F)F, the activity coefficient is 1.3 ± 0.04 (303.15 K); 1.33 and 1.31 (313.15 K); 1.32 and 1.34 (323.15 K).
`C=CCCCCC` [1-heptene] + CCCCCCCC[N+](C)(CCCCCCCC)CCCCCCCC.O=S(=O)([N-]S(=O)(=O)C(F)(F)F)C(F)(F)F: the activity coefficient was 1.46 and 1.44 (303.15 K); 1.45 and 1.43 (313.15 K); 1.44 and 1.42 (323.15 K).
Take `C#CCCCCC` [1-heptyne] + CCCCCCCC[N+](C)(CCCCCCCC)CCCCCCCC.O=S(=O)([N-]S(=O)(=O)C(F)(F)F)C(F)(F)F: the activity coefficient was 0.89 ± 0.1 (303.15 K); 0.89 and 0.91 (313.15 K); 0.9 and 0.92 (323.15 K).
Consider `C#CCCCC` [1-hexyne] + CCCCCCCC[N+](C)(CCCCCCCC)CCCCCCCC.O=S(=O)([N-]S(=O)(=O)C(F)(F)F)C(F)(F)F, for which the activity coefficient was 0.59 ± 0.03 (303.15 K); 0.59 ± 0.03 (313.15 K); 0.6 and 0.62 (323.15 K).
On to `C=CCCCCCCC` [1-nonene] + CCCCCCCC[N+](C)(CCCCCCCC)CCCCCCCC.O=S(=O)([N-]S(=O)(=O)C(F)(F)F)C(F)(F)F, for which the activity coefficient (303.15 K) was 1.99 ± 0.09; the activity coefficient (313.15 K) was 1.87 and 1.91; the activity coefficient (323.15 K) is 1.81 and 1.85.
Regarding `C#CCCCCCCC` [1-nonyne] + CCCCCCCC[N+](C)(CCCCCCCC)CCCCCCCC.O=S(=O)([N-]S(=O)(=O)C(F)(F)F)C(F)(F)F, the activity coefficient was 1.15 ± 0.04 (303.15 K); 1.15 and 1.17 (313.15 K); 1.18 ± 0.04 (323.15 K).
On to `C#CCCCCCC` [1-octyne] + CCCCCCCC[N+](C)(CCCCCCCC)CCCCCCCC.O=S(=O)([N-]S(=O)(=O)C(F)(F)F)C(F)(F)F, for which the activity coefficient was 1.07 and 1.05 (303.15 K); 1.08 and 1.06 (313.15 K); 1.1 and 1.08 (323.15 K).
In the case of `C=CCCC` [1-pentene] + CCCCCCCC[N+](C)(CCCCCCCC)CCCCCCCC.O=S(=O)([N-]S(=O)(=O)C(F)(F)F)C(F)(F)F, the activity coefficient runs as follows: (303.15 K) 0.78 ± 0.03; (313.15 K) 0.76 and 0.74; (323.15 K) 0.76 and 0.78.
On to `C#CCCC` [1-pentyne] + CCCCCCCC[N+](C)(CCCCCCCC)CCCCCCCC.O=S(=O)([N-]S(=O)(=O)C(F)(F)F)C(F)(F)F, for which the activity coefficient (303.15 K) is 0.53 and 0.52; the activity coefficient (313.15 K) was 0.52 and 0.53; the activity coefficient (323.15 K) was 0.54 and 0.55.
As for `CC(C)=O` [acetone] + CCCCCCCC[N+](C)(CCCCCCCC)CCCCCCCC.O=S(=O)([N-]S(=O)(=O)C(F)(F)F)C(F)(F)F, the activity coefficient (303.15 K) is 0.35 ± 0.04; the activity coefficient (313.15 K) was 0.4 and 0.38; the activity coefficient (323.15 K) was 0.42 and 0.44.
As for `c1ccccc1` [benzene] + CCCCCCCC[N+](C)(CCCCCCCC)CCCCCCCC.O=S(=O)([N-]S(=O)(=O)C(F)(F)F)C(F)(F)F, the activity coefficient (303.15 K) was 0.32 and 0.31; the activity coefficient (313.15 K) amounted to 0.31 ± 0.04; the activity coefficient (323.15 K) is 0.31 and 0.32.
With `CCC(C)=O` [butanone] + CCCCCCCC[N+](C)(CCCCCCCC)CCCCCCCC.O=S(=O)([N-]S(=O)(=O)C(F)(F)F)C(F)(F)F, the activity coefficient is, setting by setting: (303.15 K) 0.32 and 0.34; (313.15 K) 0.31 and 0.33; (323.15 K) 0.29 and 0.31.
In the case of `C1CCCCCC1` [cycloheptane] + CCCCCCCC[N+](C)(CCCCCCCC)CCCCCCCC.O=S(=O)([N-]S(=O)(=O)C(F)(F)F)C(F)(F)F, the activity coefficient is, setting by setting: (303.15 K) 0.95 and 0.94; (313.15 K) 0.9 and 0.91; (323.15 K) 0.89 and 0.88.
For `C1CCCCC1` [cyclohexane] + CCCCCCCC[N+](C)(CCCCCCCC)CCCCCCCC.O=S(=O)([N-]S(=O)(=O)C(F)(F)F)C(F)(F)F, the activity coefficient (303.15 K) came out at 0.84 ± 0.03; the activity coefficient (313.15 K) was 0.8 and 0.81; the activity coefficient (323.15 K) is 0.8 and 0.79.
In the case of `C1CCCCCCCC1` [cyclononane] + CCCCCCCC[N+](C)(CCCCCCCC)CCCCCCCC.O=S(=O)([N-]S(=O)(=O)C(F)(F)F)C(F)(F)F, the activity coefficient (303.15 K) was 1.76 and 1.74; the activity coefficient (313.15 K) is 1.68 ± 0.07; the activity coefficient (323.15 K) was 1.63 and 1.61.
As to `C1CCCCCCC1` [cyclooctane] + CCCCCCCC[N+](C)(CCCCCCCC)CCCCCCCC.O=S(=O)([N-]S(=O)(=O)C(F)(F)F)C(F)(F)F, the activity coefficient was 1.08 and 1.07 (303.15 K); 1.01 and 1.03 (313.15 K); 0.99 and 1.03 (323.15 K).
For `C1CCCC1` [cyclopentane] + CCCCCCCC[N+](C)(CCCCCCCC)CCCCCCCC.O=S(=O)([N-]S(=O)(=O)C(F)(F)F)C(F)(F)F, the activity coefficient runs as follows: (303.15 K) 0.71 ± 0.03; (313.15 K) 0.69 and 0.7; (323.15 K) 0.7 and 0.69.
For `CCCCCCCCCC` [decane] + CCCCCCCC[N+](C)(CCCCCCCC)CCCCCCCC.O=S(=O)([N-]S(=O)(=O)C(F)(F)F)C(F)(F)F, the activity coefficient (303.15 K) is 3.2 and 3; the activity coefficient (313.15 K) is 2.74 and 2.72; the activity coefficient (323.15 K) was 2.5 ± 0.11.
Take `CCO` [ethanol] + CCCCCCCC[N+](C)(CCCCCCCC)CCCCCCCC.O=S(=O)([N-]S(=O)(=O)C(F)(F)F)C(F)(F)F: the activity coefficient by setting is: (303.15 K) 0.94 and 0.95; (313.15 K) 0.85 and 0.87; (323.15 K) 0.8 and 0.83.
`CCCCCCC` [heptane] + CCCCCCCC[N+](C)(CCCCCCCC)CCCCCCCC.O=S(=O)([N-]S(=O)(=O)C(F)(F)F)C(F)(F)F: the activity coefficient (303.15 K) is 1.3 and 1.31; the activity coefficient (313.15 K) was 1.26 and 1.28; the activity coefficient (323.15 K) is 1.25 ± 0.04.
Take `C=CCCCC` [hex-1-ene] + CCCCCCCC[N+](C)(CCCCCCCC)CCCCCCCC.O=S(=O)([N-]S(=O)(=O)C(F)(F)F)C(F)(F)F: the activity coefficient was 0.89 and 0.88 (303.15 K); 0.85 ± 0.03 (313.15 K); 0.88 and 0.87 (323.15 K).
Consider `CCCCCC` [hexane] + CCCCCCCC[N+](C)(CCCCCCCC)CCCCCCCC.O=S(=O)([N-]S(=O)(=O)C(F)(F)F)C(F)(F)F, for which the activity coefficient is, setting by setting: (303.15 K) 1.13 ± 0.03; (313.15 K) 1.11 and 1.12; (323.15 K) 1.11 and 1.1.
With `CO` [methanol] + CCCCCCCC[N+](C)(CCCCCCCC)CCCCCCCC.O=S(=O)([N-]S(=O)(=O)C(F)(F)F)C(F)(F)F, the activity coefficient is 0.88 and 0.89 (303.15 K); 0.81 and 0.82 (313.15 K); 0.79 and 0.81 (323.15 K).
As to `CCCCCCCCC` [nonane] + CCCCCCCC[N+](C)(CCCCCCCC)CCCCCCCC.O=S(=O)([N-]S(=O)(=O)C(F)(F)F)C(F)(F)F, the activity coefficient was 2.57 and 2.59 (303.15 K); 2.39 ± 0.11 (313.15 K); 2.21 ± 0.1 (323.15 K).
`C=CCCCCCC` [oct-1-ene] + CCCCCCCC[N+](C)(CCCCCCCC)CCCCCCCC.O=S(=O)([N-]S(=O)(=O)C(F)(F)F)C(F)(F)F: the activity coefficient reads like this: (303.15 K) 1.69 ± 0.07; (313.15 K) 1.65 and 1.67; (323.15 K) 1.64 and 1.66.
For the molecule `CCCCCCCC` [octane] + CCCCCCCC[N+](C)(CCCCCCCC)CCCCCCCC.O=S(=O)([N-]S(=O)(=O)C(F)(F)F)C(F)(F)F, the activity coefficient runs as follows: (303.15 K) 1.52 and 1.54; (313.15 K) 1.46 and 1.49; (323.15 K) 1.44 and 1.43.
In the case of `CCCCC` [pentane] + CCCCCCCC[N+](C)(CCCCCCCC)CCCCCCCC.O=S(=O)([N-]S(=O)(=O)C(F)(F)F)C(F)(F)F, the activity coefficient runs as follows: (303.15 K) 1.01 and 1; (313.15 K) 0.99 ± 0.11; (323.15 K) 1 and 0.98.
With `CCCO` [propan-1-ol] + CCCCCCCC[N+](C)(CCCCCCCC)CCCCCCCC.O=S(=O)([N-]S(=O)(=O)C(F)(F)F)C(F)(F)F, the activity coefficient runs as follows: (303.15 K) 1.37 and 1.35; (313.15 K) 1.24 and 1.22; (323.15 K) 1.13 and 1.15.
Regarding `Cc1ccccc1` [toluene] + CCCCCCCC[N+](C)(CCCCCCCC)CCCCCCCC.O=S(=O)([N-]S(=O)(=O)C(F)(F)F)C(F)(F)F, the activity coefficient was 0.51 ± 0.03 (303.15 K); 0.52 ± 0.03 (313.15 K); 0.55 and 0.53 (323.15 K).
